The structures appear in SMILES notation.

The assay deals with Plasmodium falciparum. Put plainly: GSK_TCMDC: Inhibition of Plasmodium falciparum 3D7 in whole erythrocytes, using parasite LDH activity as an index of growth. Conditions: Plasmodium falciparum, 3D7. The assay is classed as functional, organism-based.
With `Nc1nc2c(cnn2CCCCCCCP(=O)(O)O)c(=O)[nH]1`, the XC50 stood at 0.469 µM.

`CCN(CC)CCN(Cc1ccc(-c2ccc(C(F)(F)F)s2)cc1)C(=O)Cn1c(CCc2cccc(F)c2F)nc(=O)c2ccccc21` showed an XC50 of 0.994 µM.

As for `CCN(CC)CCN(Cc1ccc(-c2ccc(C(F)(F)F)cc2)cc1)C(=O)Cn1c(CCc2ccc(F)c(C#N)c2)nc(=O)c2ccccc21`, the XC50 is 0.769 µM.

In turn, `CC(C)CNCc1cccc(-c2ccc(CN(C(=O)NC3CCCCC3)C3CCN(Cc4ccccc4)CC3)cc2)c1` gave an XC50 of 0.763 µM.

The compound `C=CCc1cc(Br)ccc1OCCCOc1c(C)nc(N)nc1N` gave an XC50 of 0.0032 µM.

`N=C(/N=C(/NCCCCCCN/C(=N/C(=N)NCc1ccc(Cl)c(Cl)c1)N1CCCCC1)N1CCCCC1)NCc1ccc(Cl)c(Cl)c1`: the XC50 was 0.567 µM.

Take `Nc1ncc(OC2CCCCC2)c(N)n1`: the XC50 turned out to be 1.07 µM.

As to `COCCNCc1cccc(-c2ccccc2CN(C(=O)Nc2ccccc2)C2CCN(Cc3ccccc3)CC2)c1`, the XC50 came to 0.914 µM.

`COc1cccc(C2C(C(=O)Nc3ccccc3)=C(C)N=c3sc(=Cc4ccc(O)cc4)c(=O)n32)c1` (centres undefined): the XC50 was found to be 0.579 µM.

As to `Cc1ccc(C(=O)Nc2ccc(OC3CCN(CCC(C)C)C3)c(Cl)c2)cc1` (centres undefined), the XC50 came out at 0.991 µM.

Compound `Nc1ccc2[nH]cc(C3CCN(CC4CCN(C(=O)/C=C/c5ccc(Cl)c(Cl)c5)CC4)CC3)c2n1` yielded an XC50 of 0.701 µM.

With `COc1cc(C2=NN(S(=O)(=O)c3c(C)cc(C)cc3C)CCCC2)ccc1Cl`, the XC50 is 0.775 µM.

`Cn1nccc1C(=O)NCCNCc1cccc(-c2cccc(-c3nc4cc(F)ccc4[nH]3)c2)c1` yielded an XC50 of 0.261 µM.

In turn, `COc1ccc2ncc(F)c(NC(=O)C3CCC(NCc4cc5c(F)cccc5[nH]4)CC3)c2n1` (centres undefined) came in with an XC50 of 1.09 µM.

In the case of `COc1cc2[nH]c(-c3ccc(O)cc3)c(C)c(=O)c2c(OC)c1OC`, the XC50 was determined as 0.717 µM.

In turn, `CC(=O)Nc1ncc(C(=O)Nc2cccc(-c3cccc(-c4nc5cc(C(F)(F)F)ccc5[nH]4)c3)c2)s1` gave an XC50 of 0.185 µM.

Compound `O=C(CCc1c[nH]cn1)Nc1cccc(-c2ccc(-c3nc4cc(F)ccc4[nH]3)cc2)c1` came in with an XC50 of 0.244 µM.

Regarding `CN1CCC(Oc2ccc(CN3CC[C@H](NC(=O)c4ccc(Cl)c(Cl)c4)C3)cc2Cl)C1` (some centres undefined), the XC50 came to 0.882 µM.

For `CC1(C)N=C(N)N=C(Nc2ccc(F)c(F)c2)N1`, the XC50 is 0.0525 µM.

In the case of `Cc1ccc(F)c(OCC2CCN(c3ccc(C(=O)NC4CC4)cn3)CC2)c1`, the XC50 was determined as 0.733 µM.

`C=CCOC(=O)N1CCC(CNCc2ccc(-c3cccc(-c4nc5ccccc5[nH]4)c3)cc2)C1` (centres undefined): the XC50 came to 0.255 µM.

`C[C@H]1CN(Cc2cccc(-c3cc(CNC(=O)c4cccc(CN5CCN(CCOc6ccccc6)CC5)c4)ccc3F)c2)CCN1`: the XC50 came to 1.11 µM.

`CC(=O)Nc1ccc(CN(Cc2ccc(F)cc2)Cc2cccc(Oc3ccccc3)c2)cc1` registered an XC50 of 0.943 µM.

On to `O=C(Nc1ccccc1C(F)(F)F)Nc1nn(Cc2c(F)cccc2Cl)cc1Br`, for which the XC50 was 0.337 µM.

In turn, `C[C@H](Nc1nc(C(Oc2ccccc2)c2ccccc2)nc2[nH]ncc12)c1ccccc1` (some centres undefined) returned an XC50 of 0.484 µM.

For `CC(C)C[C@@H](CNC[C@H](CC(C)C)NC(=O)OC(C)(C)C)NC(=O)OC(C)(C)C`, the XC50 was determined as 1.25 µM.

In turn, `O=C(Cc1c[nH]cn1)Nc1cccc(-c2ccc(-c3nc4cc(F)ccc4[nH]3)s2)c1` showed an XC50 of 0.66 µM.

Compound `CCOc1cc(Cc2cnc(N)nc2N)cc(OCC)c1OCCCCC(=O)OC` gave an XC50 of 0.0448 µM.

Consider `COc1ccc2nc3cc(Cl)ccc3c(NCCN3CCN(C)CC3)c2c1`, for which the XC50 was found to be 0.124 µM.

As to `CN1CCN(CCCN(Cc2ccc(-c3cccc(CNCc4ccc5c(c4)OCO5)c3)cc2)C(=O)CCC2CCCC2)CC1`, the XC50 is 1.01 µM.

`COc1ccc2ncc(F)c(CCN3C[C@H](CNCc4cc(F)c5c(c4)NC(=O)CO5)[C@H](O)C3)c2n1` came in with an XC50 of 0.667 µM.

In turn, `COc1ccc(O)c(Cc2cnc3nc(N)nc(N)c3c2C)c1` yielded an XC50 of 0.0368 µM.

The compound `CC(=O)Nc1ccc2[nH]cc(C3CCN(CC4CCC(NC(=O)/C=C/c5ccc(Cl)c(Cl)c5)CC4)CC3)c2n1` (centres undefined) showed an XC50 of 0.263 µM.

Regarding `COc1ccc(CNC(=O)Nc2cc3cc(-c4ccc(CN(C)C)cc4)ccc3n3c(C)nnc23)cc1`, the XC50 was found to be 0.852 µM.

`CCCCCCCc1[nH]c2ccccc2c(=O)c1C`: the XC50 amounted to 0.509 µM.

`CCOC(=O)CN(c1ccc(Br)cc1OCCOc1cc(Br)ccc1N(CC(=O)OCC)C(C)C(=O)OCC)C(C)C(=O)OCC` (centres undefined) returned an XC50 of 0.806 µM.

`Cc1ccc(-c2cc(C(=O)Nc3ccc(S(=O)(=O)N4CCOCC4)cc3)[nH]n2)c(O)c1C` had an XC50 of 0.92 µM.

Regarding `OCCOCCNCc1cccc(C#Cc2cc3ncnc(Nc4ccc(OCc5cccc(F)c5)c(Cl)c4)c3s2)n1`, the XC50 turned out to be 0.781 µM.

In the case of `COc1ccc2c(O)c(Br)c(C)nc2c1`, the XC50 turned out to be 0.192 µM.

Turning to `N=c1c(C(=O)NCc2ccccc2)cc2c(=O)n3ccccc3nc2n1CCc1ccccc1`, the XC50 amounted to 0.535 µM.

Turning to `Cc1cc(=NN=Cc2ccccc2F)c2cccc(C)c2[nH]1`, the XC50 was 0.764 µM.

Consider `CCCc1ccc(S(=O)(=O)Nc2ccc3c(c2)CCC3)cc1`, for which the XC50 turned out to be 0.879 µM.

As for `CO/C(=C\C=C\c1cc2cc(Cl)c(Cl)cc2[nH]1)C(=O)NCCCCN1CCN(c2ccccc2OC)CC1`, the XC50 is 0.514 µM.

The compound `CCC(C)Oc1ccc2nc(N)nc(N)c2c1Cl` (centres undefined) yielded an XC50 of 0.177 µM.

`O=C(NCc1cccc(CN2CCOCC2)c1)c1cc(Br)cc(N2CCN(c3ccncc3)CC2)c1` yielded an XC50 of 0.858 µM.

`COc1c(C2CCN(CCCCNC(=O)c3oc(-c4ccc(Cl)cc4)cc3CO)CC2)ccc2c1CCCC2` showed an XC50 of 0.367 µM.

Regarding `N#Cc1ccc(/C=C/C(=O)NCCCCCN2CCN(C(=O)Nc3ccc(Cl)c(C(F)(F)F)c3)CC2)cc1`, the XC50 stood at 0.78 µM.

For the compound `Cc1cccc2nc(C(=O)Nc3nc(CN4CCC(C)CC4)cs3)cn12`, the XC50 came out at 0.758 µM.

Compound `Cc1cccc2nc(-c3ccc(-c4ccc(NC(=O)NCc5ccccc5)cc4)s3)[nH]c12` displayed an XC50 of 0.768 µM.

Compound `CC(C)=C(C(=O)OCc1ccccc1)N1C(=O)[C@@H](NC(c2ccccc2)(c2ccccc2)c2ccccc2)[C@H]1[S+]([O-])CC(=O)OC(C)(C)C` (some centres undefined) had an XC50 of 1.02 µM.

In turn, `CN(C)C(=O)n1cnc(S(=O)(=O)N(C)c2ccc(Cl)cc2)n1` yielded an XC50 of 0.767 µM.

`CCc1ccc(C(=O)NC(=O)c2ccccc2O)cc1` gave an XC50 of 0.61 µM.

With `COc1cc(NC(=O)/C=C/c2ccccc2OC(F)(F)F)cc(OCCN2CCN(CCN3CCOCC3)CC2)c1`, the XC50 amounted to 0.157 µM.

For the compound `O=C(NC1CC1)c1ccc(N2CCN(Cc3ccc(Cl)cc3)CC2)nc1`, the XC50 came to 1.34 µM.

`O=C(Nc1ccc2c(c1)OCO2)c1cc(-c2cccnc2)nc2ccc(Cl)cc12` gave an XC50 of 0.524 µM.

With `CCOc1ccc(-c2nonc2NC(=O)c2ccco2)cc1OCC`, the XC50 is 0.75 µM.

For `Cc1c(C)c2c(c(C)c1O)CC[C@@](C)(C(=O)N1CCC(CN3CCC(c4c[nH]c5ccccc45)CC3)CC1)O2`, the XC50 was 0.657 µM.

`FC(F)(F)c1cccc(CCNc2nccc(NCc3ccccc3Cl)n2)c1` yielded an XC50 of 1.17 µM.

Regarding `CN1CCCC1CCNCc1ccc(-c2ccc(CNCCc3ccccc3)cn2)cc1` (centres undefined), the XC50 turned out to be 1.11 µM.

The compound `CN(C(=O)/C=C/c1c(Cl)cccc1Cl)C1CCN(CCCCCNC(=O)/C=C/c2ccc(Cl)c(Cl)c2)CC1` returned an XC50 of 0.36 µM.

As for `O=C(NCCCCCN1CCC(c2c[nH]c3ccccc23)CC1)c1ccc(-c2ccccc2)nc1`, the XC50 turned out to be 1.02 µM.

For `COc1cccc(C(=O)NCc2cccs2)c1Oc1ccccc1`, the XC50 was 0.0635 µM.

The compound `Cc1cc(N2CC=CCC2)nc(NC(=N)Nc2ccc(Cl)cc2)n1` registered an XC50 of 0.782 µM.

`N=C(N)CCN(Cc1ccccc1)c1ccc(Cl)cc1` had an XC50 of 0.257 µM.

The compound `COc1cc(Cc2cnc(NCCN3CCNCC3)nc2N)ccc1OCc1ccc(C(F)(F)F)cc1` gave an XC50 of 0.922 µM.

Compound `CCCCCN1CCC(CNS(=O)(=O)c2ccc(C(=O)Nc3cccc(C(F)(F)F)c3)cc2)CC1` returned an XC50 of 0.747 µM.

`O=C(Nc1cccc(CN2CCCN(CC3CCCCC3)CC2)c1)c1ccc(Cl)c(Cl)c1` showed an XC50 of 0.962 µM.

For the compound `CC(C)N1CCN(C(=O)c2ccc(CNCCCN3CCN(c4ccccc4C(F)(F)F)CC3)s2)CC1`, the XC50 is 0.837 µM.

Take `Cc1cccc(-c2nc3cc(NC(=O)c4ccc([N+](=O)[O-])o4)ccc3o2)c1`: the XC50 was found to be 0.876 µM.

`Oc1cc(Nc2ccnc3ccc(I)cc23)c(F)cc1Cl`: the XC50 amounted to 1.23 µM.

In turn, `Nc1cccc(CNCc2ccc(-c3cccc(-c4nc5cc(C(F)(F)F)ccc5[nH]4)c3)cc2)c1` had an XC50 of 0.172 µM.

`CCOC(=O)c1cc(=O)c2ccc(OCC#N)cc2o1`: the XC50 was determined as 1.03 µM.

The compound `CN(C)S(=O)(=O)c1ccc(N2C(=O)C3C(C2=O)C2(c4ccccc4)C(=O)C3(c3ccccc3)C(c3ccccc3)=C2c2ccccc2)cc1` (centres undefined) yielded an XC50 of 0.951 µM.

Consider `Oc1c(Cl)cc(Nc2nccc(Nc3ccc(Oc4ccccc4)cc3)n2)cc1Cl`, for which the XC50 came to 0.786 µM.

For `Cc1ccc(CON2C(N)=NC(N)=NC2(C)C)c(Cl)c1.Cc1ccc(CON2C(N)=NC(N)=NC2(C)C)cc1Cl`, the XC50 was 0.0032 µM.

With `CCOC(=O)C(C)(C)Oc1ccc(CN(Cc2ccc(CC(C)C)cc2)C(=O)Nc2ccc(F)cc2F)c(OC)c1`, the XC50 is 0.238 µM.

As for `Cc1cccc(C(=O)Nc2ccnc(N(C)C3CCN(Cc4cccc(O)c4)CC3)c2)c1`, the XC50 is 0.944 µM.

Consider `O=C(Nc1ccc(C2=NC3CCCCC3N2)cc1)Nc1ccc(C2=NC3CCCCC3N2)cc1` (centres undefined), for which the XC50 worked out at 0.179 µM.

Compound `CCCC(=O)c1cnc2c(Oc3cc(Cl)ncn3)cccc2c1Nc1ccccc1C` had an XC50 of 0.336 µM.

`CCNc1cc(C(=O)N[C@@H](Cc2ccc(Cl)cc2)[C@H](O)CNC2CCCCC2)cc(N2CCCCS2(=O)=O)c1` returned an XC50 of 0.15 µM.

As for `Cc1nn(-c2ccccc2)c2nc(-c3ccccc3)cc(C(=O)N3CCOCC3)c12`, the XC50 was found to be 0.872 µM.

For `CCN(CC)CCN(Cc1ccc(-c2ccc(C(F)(F)F)cc2)cc1)C(=O)Cn1c(CCc2cccc(F)c2F)cc(=O)cc1-c1ccccc1`, the XC50 was 0.778 µM.

`O=C(Nc1ccc(S(=O)(=O)N2CCOCC2)cc1)c1cc(-c2cc(Cl)ccc2O)n[nH]1`: the XC50 was determined as 0.77 µM.

Regarding `N#Cc1ccc2c(c1)CCN(CCC1CCC(NC(=O)c3cc4ccccc4[nH]3)CC1)CC2` (centres undefined), the XC50 was found to be 1.01 µM.

The values above are taken from ChEMBL document CHEMBL1157539, “Thousands of chemical starting points for antimalarial lead identification” (Nature, 2010).
